Here are results for 4 molecules from paper PMC9448872 (Frontiers in Cell and Developmental Biology, 2022).

The subject of data set [1] is αvβ6 endocytosis in C76 cells. Kind of data set: Flow cytometry internalisation assay using TCEP reduction in C76 cells (inhibitors, siRNA). It counts as cell-based. On the set-up: internalisation of A20FMDV2 with Clathrin inhibitor: concentration or dose not given beside the values.
Data set [2] has as its system C76 cells. The data set is described as follows: Transwell migration assay. Particulars: Transwells coated with 0.5 μg/ml LAP, 16 h, vehicle control 547 ± 128, p < 0.05.
Data set [3] has as its target T1, αvβ6 (Homo sapiens, UniProt P06756+P18564).
T1 construct: endogenous in cells; host or cells: panel of breast, pancreas and lung cell lines (C76, C102, C139, H322M, H441, H358, MCF10A, MCF10CA1α, MDAMB468, BT20, HPDE, NHBE)
The settings on record: cited from earlier work.

Data set [4] relates to C76 cells. Kind of data set: Cell viability by flow cytometry and DAPI uptake. It counts as cell-based. Particulars: 500nM of TCEP, DAPI uptake, mean, n = 2 (95% without TCEP).
In data set [5] the test system is FMDV. The settings on record: cited from earlier work.

T1 sequence (P06756 31-889 limits assumed): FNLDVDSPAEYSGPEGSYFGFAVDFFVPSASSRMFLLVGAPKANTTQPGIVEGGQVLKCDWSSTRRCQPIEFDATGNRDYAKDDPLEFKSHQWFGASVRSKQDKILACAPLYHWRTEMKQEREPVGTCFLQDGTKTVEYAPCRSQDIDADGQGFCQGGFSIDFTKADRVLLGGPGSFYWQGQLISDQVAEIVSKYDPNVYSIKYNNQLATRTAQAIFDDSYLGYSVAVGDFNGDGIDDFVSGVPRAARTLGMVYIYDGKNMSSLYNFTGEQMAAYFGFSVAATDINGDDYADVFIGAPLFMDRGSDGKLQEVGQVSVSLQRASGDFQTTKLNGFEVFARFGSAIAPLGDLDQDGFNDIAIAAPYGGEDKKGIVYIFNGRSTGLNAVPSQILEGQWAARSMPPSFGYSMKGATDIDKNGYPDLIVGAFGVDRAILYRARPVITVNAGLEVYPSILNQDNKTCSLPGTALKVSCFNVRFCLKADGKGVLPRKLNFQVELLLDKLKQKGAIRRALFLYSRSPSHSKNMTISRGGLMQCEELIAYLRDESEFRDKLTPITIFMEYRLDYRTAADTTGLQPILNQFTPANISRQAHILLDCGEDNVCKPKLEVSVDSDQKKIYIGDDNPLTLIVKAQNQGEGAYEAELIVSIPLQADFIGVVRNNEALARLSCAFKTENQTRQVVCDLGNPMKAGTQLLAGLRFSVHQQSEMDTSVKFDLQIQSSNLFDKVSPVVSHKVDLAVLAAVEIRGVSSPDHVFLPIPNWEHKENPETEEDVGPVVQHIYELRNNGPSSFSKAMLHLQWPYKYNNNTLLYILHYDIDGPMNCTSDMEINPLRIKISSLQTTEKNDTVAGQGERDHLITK
T1 sequence (P06756 891-1048 limits assumed): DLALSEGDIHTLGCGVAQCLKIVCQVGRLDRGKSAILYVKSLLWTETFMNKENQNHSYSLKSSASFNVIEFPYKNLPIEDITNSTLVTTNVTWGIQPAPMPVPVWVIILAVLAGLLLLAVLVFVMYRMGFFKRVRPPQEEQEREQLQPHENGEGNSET
T1 sequence (P18564 22-788): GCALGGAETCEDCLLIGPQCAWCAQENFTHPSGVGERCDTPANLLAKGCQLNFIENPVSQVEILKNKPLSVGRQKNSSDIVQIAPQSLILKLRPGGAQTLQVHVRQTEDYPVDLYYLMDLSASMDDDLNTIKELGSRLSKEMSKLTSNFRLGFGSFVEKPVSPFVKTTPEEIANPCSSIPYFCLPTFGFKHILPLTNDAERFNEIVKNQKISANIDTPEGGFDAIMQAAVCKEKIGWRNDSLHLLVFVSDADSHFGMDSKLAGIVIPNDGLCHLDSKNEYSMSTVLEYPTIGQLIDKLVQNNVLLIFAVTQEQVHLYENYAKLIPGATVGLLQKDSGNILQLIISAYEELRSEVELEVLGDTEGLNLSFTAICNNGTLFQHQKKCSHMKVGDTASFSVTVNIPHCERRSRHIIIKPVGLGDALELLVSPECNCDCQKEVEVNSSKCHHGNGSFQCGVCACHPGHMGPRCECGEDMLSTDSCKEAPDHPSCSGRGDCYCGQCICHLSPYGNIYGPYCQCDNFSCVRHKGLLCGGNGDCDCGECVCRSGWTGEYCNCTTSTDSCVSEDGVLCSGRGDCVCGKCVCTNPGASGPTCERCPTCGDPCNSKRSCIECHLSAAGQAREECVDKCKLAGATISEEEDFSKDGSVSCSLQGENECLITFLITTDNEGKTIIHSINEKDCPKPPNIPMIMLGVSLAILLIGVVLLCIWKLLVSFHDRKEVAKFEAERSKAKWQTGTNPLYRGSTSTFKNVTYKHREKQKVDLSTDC

Regarding `CN(C)CCCN1c2ccccc2Sc2ccc(Cl)cc21` [Chlorpromazine], in data set [1] (C76 cells pre-treated with 2 ug/ml Chlorpromazine, 20 min, n = 3, p < 0.05), the “internalisation of αvβ6-bound Cy5-SS-(GS)5-bioA20FMDV2 with clathrin inhibitor” value is given as 39 ± 2.5%. For the same molecule, the “internalisation of A20FMDV2 with Clathrin inhibitor” value came to 6.2 ± 3.5% in data set [1] (C76 cells, ARFGAP siRNA knockdown + clathrin inhibitor, n = 3); 9.4 ± 9.9% in data set [1] (C76 cells, ASAP siRNA knockdown + clathrin inhibitor, n = 3); 14 ± 8% in data set [1] (C76 cells, CBL siRNA knockdown + clathrin inhibitor, n = 3); 7.4 ± 3.9% in data set [1] (C76 cells, CBLB siRNA knockdown + clathrin inhibitor, n = 3); 13 ± 11.7% in data set [1] (C76 cells, CYTH2 siRNA knockdown + clathrin inhibitor, n = 3); 14 ± 6.5% in data set [1] (C76 cells, non-targeting (NT) siRNA + chlorpromazine, n = 3, not significant). In addition, the “number of cells migrating towards LAP” value in data set [2] was found to be 225 ± 73.
Turning to `CCCCC[C@@H](O)[C@H]1C(=O)O[C@H](C)[C@@H](O)/C=C/C=C/C=C/C=C/C=C(\C)[C@@H](O)C[C@H](O)C[C@H](O)C[C@H](O)C[C@H](O)C[C@H](O)C[C@@H]1O` [Filipin], in data set [1] (C76 cells pre-treated with 10 ug/ml Filipin, n = 3, p < 0.05), the “internalisation of αvβ6-bound Cy5-SS-(GS)5-bioA20FMDV2 with caveolin inhibitor” value stood at 19.7 ± 3.9%. Besides, the “reduction in the number of cells with internalised αVβ6-A20FMDV2” value in data set [1] (C76 cells, caveolin inhibited (Filipin)) is 41%. Further, the “number of cells migrating towards LAP” value in data set [2] stood at 280 ± 51. Further, the “reduction in αvβ6 internalisation with caveolin inhibitor” value in data set [3] is “not statistically significant”.
Consider `O=C(O)CCP(CCC(=O)O)CCC(=O)O` [TCEP, tris(2-carboxyethyl)phosphine], for which the cells viable in data set [4] was found to be 68%.
Consider `OC[C@H]1O[C@@](CO)(O[C@H]2O[C@H](CO)[C@@H](O)[C@H](O)[C@H]2O)[C@@H](O)[C@@H]1O` [sucrose], for which the “reduction of αvβ6 dependent FMDV infection” value in data set [5] was 95%.
